Read-outs that look alike come from different tables or passages of the source.
Assays:
[1] = test system: human lymphoblastic leukemia cell line (CCRF-CEM); assay: in vitro cytotoxicity, PrestoBlue assay; assay type: cell-based; conditions: 72-hr incubation; mean ± STDEV of three to six experiments; read-out: IC50 CCRF-CEM
Outline: (§1)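 Cells exposed to compounds for 72 hr, then viability read by PrestoBlue after 1-2 hr at 37° C, absorbance 570 and 600 nm.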

colon cancer HCT-116 = assay: in vitro cytotoxicity, PrestoBlue assay; assay type: cell-based, human; conditions: Table 2
Outline: as §1

[2] = test system: non-small cell lung cancer H460; assay: in vitro cytotoxicity, PrestoBlue assay; assay type: cell-based, human; conditions: Table 2
Outline: as §1

pancreatic cancer PacaS1 = assay: in vitro cytotoxicity, PrestoBlue assay; assay type: cell-based, human; conditions: Table 2
Outline: as §1

[3] = test system: vinblastine-resistant sub-cell line (CCRF-CEM/VBL); assay: in vitro cytotoxicity, PrestoBlue assay; assay type: cell-based, human; conditions: for IC50: 72-hr incubation, mean ± STDEV of three to six experiments, read-out: IC50 CEM/VBL; for resistance factor (IC50 CEM/VBL vs IC50 of the parent cell line): number in brackets
Outline: as §1

[4] = test system: small cell lung cancer H526; assay: in vitro cytotoxicity, PrestoBlue assay; assay type: cell-based, human; conditions: read-out: IC50 H526
pEGFP-N1 plasmid DNA = assay: DNA cross-linking, alkaline agarose gel electrophoresis; assay type: biochemical; conditions: FIG. 1; for formation of DNA interstrand crosslinks: 1-20 μM, 37° C., 2 hrs
Procedure: In the present example, BO-2590, BO-2577 (Formula I-A) and BO-2698, BO-2755, BO-2762 and BO-2768 (Formula I-B) were tested for their DNA crosslinking activity, in which the cross-linking was analyzed by alkaline agarose gel electrophoresis. In brief, purified pEGFP-N1 plasmid DNA (1,500 ng) was mixed with various concentrations (1-20 μM) of the tested compounds in 40 μL binding buffer (3 mM sodium chloride/1 mM sodium phosphate, pH 7.4, and 1 mM EDTA). The reaction mixture was incubated at 37° C. for 2 hrs. At the end of reaction, the plasmid DNA was linearized by digestion with BamHI and followed by precipitation with ethanol. The DNA pellets were dissolved and denatured in alkaline buffer (0.5 N NaOH-10mM EDTA). An aliquot of 20 μL of DNA solution (1,000 ng) was mixed with 4 μL of 6× alkaline loading dye and then electrophoretically resolved on a 0.8% alkaline agarose gel with NaOH-EDTA buffer at 4° C. The electrophoresis was carried out at 18V for 22 h. After staining the gels with an ethidium bromide solution, the DNA was visualized under UV light. Results are illustrated in FIG. 1.

[5] = test system: human SCLC H526 xenografts; assay: tumor growth in xenograft-bearing nude mice; assay type: in vivo; conditions: for tumor size: micelle formulation (Kolliphor/TWEEN 80/PEG400/ethanol/D5W), BO-2768 at 20 mg/kg twice daily, FIG. 12, panel A
Procedure: Athymic nude mice bearing the nu/nu gene were obtained from the National Laboratory Animal Center (Taipei, Taiwan). Male nude mice (6 weeks or older weighing 20-24 g or more) were used for all human tumor xenografts. The tested compounds were intravenously administered through tail vein. Tumor volume was determined by measuring the length x width x height (or width) with calipers. […] For tumor-bearing nude mice during the course of the experiment, the % body weight changes refer to: (the total weight on reading day/the total weight on day treatment started)×100.
In all experiments, the tumor cells were subcutaneously implanted in nude mice, and the BO-2590L was administered via tail vein when the tumor size reaching approximate 100 mm^3. […]
To confirm the therapeutic activity of BO-2590L, comparative experiments carried out by known chemotherapeutic agents, such as vatanalib and cisplatin, were also performed. Briefly, the H526 xenograft-bearing mice were divided into 4 groups which were treated with vehicle, BO-2590L (10 mg/kg, QD×9), vatalanib (100 mg/kg, QD×9), and cisplatin (4 mg/kg, Q2D×3), respectively. Results are illustrated in FIG. 11.
Results are illustrated in FIGS. 12 and 13.

[6] = body weight changes of xenograft-bearing nude mice; assay type: in vivo; conditions: for deleterious effects on the bodyweight of the test animals: micelle formulation, FIG. 12, panel B
Procedure: Athymic nude mice bearing the nu/nu gene were obtained from the National Laboratory Animal Center (Taipei, Taiwan). Male nude mice (6 weeks or older weighing 20-24 g or more) were used for all human tumor xenografts. The tested compounds were intravenously administered through tail vein. Tumor volume was determined by measuring the length x width x height (or width) with calipers. The vehicle used for the tested compounds was normal saline (0.9% NaCl isotonic solution). For tumor-bearing nude mice during the course of the experiment, the % body weight changes refer to: (the total weight on reading day/the total weight on day treatment started)×100.

γ-H2AX = assay: immunohistochemical staining of tumor xenograft sections, DNA damage marker; assay type: in vivo, nude mice; conditions: FIG. 16, panel B
Procedure: Tumor xenograft tissue sections on the slides were deparaffinized in xylene twice for 7 min each time. The slides were then rehydrated in graded ethanol, serially from 100% to 70%, followed by rinsing in dH2O. Antigen retrieval was performed using citrate buffer (0.01M, pH 6.0) with incubation in a cooker for 50 mins followed by ambient temperature cooling for 30 min. and then dH2O rinsing. Later slides were subjected to immunohistochemical (IHC) staining with primary antibodies (anti-rabbit CD31 antibody and anti-mouse γ-H2AX antibody) obtained from Abeam® following the manufacturer's instructions (Novolink Polymer Detection system, Leica Biosystems, Wetzlar, Germany).^11 After IHC processing, the slides were scanned digitally using the Panoramic 250 Flash II whole slide scanner and analyzed by 3[…] Panoramic viewer software (3[…] Ltd., Budapest, Hungary).
As BO-2590L is a DNA damaging agent, we thus investigated the effect of BO-2590L on the level of a DNA damage marker, γ-H2AX, via the use of immunohistochemical staining.

H211 = assay: in vitro cytotoxicity to SCLC cells; assay type: cell-based, human; conditions: Table 3
Outline: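 SCLC lines exposed to compounds for 72 h, then viability measured by PrestoBlue (1–2 h at 37° C, absorbance 570/600 nm).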

H211 cells = assay: combination with cisplatin, proliferation by PrestoBlue assay; assay type: cell-based; conditions: co-administration of BO-2768 and cisplatin, ratio 1:2, 1:4 and 1:8; FIG. 9
Procedure: In this example, whether synergistic effect on the suppression of cell proliferation exists between BO-2768 and cisplatin was investigated. To this purpose, H211 cells were treated with BO-2768 or cisplatin, alone or in combination, and proliferation rate of H211 cells was analyzed by PrestoBlue assay. Results are depicted in FIG. 9.

SMILES	IC50 [1]	IC50 (colon cancer HCT-116)	IC50 [2]	IC50 Paca SI (pancreatic cancer PacaS1)	IC50 [3]	resistance factor (IC50 CEM/VBL vs IC50 of the parent cell line) [3]	IC50 ([4]; Table 2)	formation of DNA interstrand crosslinks (pEGFP-N1 plasmid DNA)	cross-linker strength compared with melphalan (pEGFP-N1 plasmid DNA)	tumor size [5]	deleterious effects on the bodyweight of the test animals ([6]; H526 xenograft mice)	γ-H2AX signals, quantitative analysis (γ-H2AX)	IC50 ([4]; Table 3)	IC50 (H211)	numbers of proliferated H211 cells, combination effect (H211 cells)	tumor growth ([5]; 20 mg/kg twice per day, entire time of the study, FIG. 13, panel A)	tumor growth, dose dependence ([5]; FIG. 13, panel A)	body weight of the test animals ([6]; H211 xenograft mice, co-administration of BO-2768 and cisplatin, FIG. 14, panel B)	effects on the bodyweight of the test animals ([6]; H526 xenograft mice, 20 mg/kg twice per day, FIG. 13, panel B)
Cc1c(CO)c(CO)c2c3ccccc3c(N3CCC(N4CCCCC4)CC3)nn12 [BO-2590, (6-([1,4′-Bipiperidin]-1′-yl)-3-methylpyrrolo[2,1-α]phthalazine-1,2-diyl)dimethanol]	230 ± 30 nM	400 ± 90 nM	600 ± 110 nM	300 ± 80 nM	250 ± 40 nM	1.09 ×	14 ± 4 nM	induced DNA interstrand crosslinks	relatively stronger cross-linker than that of melphalan	as effective as irinotecan and cisplatin in reducing the tumor size	none	time-dependently increased in γ-H2AX signals	–	–	–	–	–	–	–
Cc1c(CO)c(CO)c2c3cc4ccccc4cc3c(N(C)C)nn12 [BO-2768, (6-(Dimethylamino)-3-methylbenzo[g]pyrrolo[2,1-α]phthalazine-1,2-diyl)dimethanol]	190 ± 10 nM	650 ± 20 nM	1020 ± 160 nM	3980 ± 1040 nM	100 ± 10 nM	0.53 ×	50 ± 1 nM	induced DNA interstrand crosslinks	–	growth of tumor was completely suppressed	none	–	40 ± 5 nM	170 ± 70 nM	synergistic reduction in the numbers of proliferated H211 cells	completely suppress the growth of tumor	suppressed tumor growth in a dose-dependent manner	without adversely affecting the body weight	without any deleterious effects on the bodyweight

Reference: US11066412B2, “Substituted pyrrolo[2,1-a]phthalazines and benzo[g]pyrrolo[2,1-a]phthalazines for the treatment of cancer” (Academia Sinica, priority 2017, dated 2021)
